Laboratory results taken from ChEMBL document CHEMBL5126566, “Comparison of three zinc binding groups for HDAC inhibitors - A potency, selectivity and enzymatic kinetics study” (Bioorg Med Chem Lett, 2022).
The source made the active and inactive calls. The calls are words filed in the database; no cut-off is given here.

Tests used:
Histone deacetylase 1 [1] = target: T1, Histone deacetylase 1 (Homo sapiens, UniProt Q13547); experiment: Inhibition of HDAC1 (unknown origin) preincubated for 120 mins
T1 sequence (Q13547 whole entry): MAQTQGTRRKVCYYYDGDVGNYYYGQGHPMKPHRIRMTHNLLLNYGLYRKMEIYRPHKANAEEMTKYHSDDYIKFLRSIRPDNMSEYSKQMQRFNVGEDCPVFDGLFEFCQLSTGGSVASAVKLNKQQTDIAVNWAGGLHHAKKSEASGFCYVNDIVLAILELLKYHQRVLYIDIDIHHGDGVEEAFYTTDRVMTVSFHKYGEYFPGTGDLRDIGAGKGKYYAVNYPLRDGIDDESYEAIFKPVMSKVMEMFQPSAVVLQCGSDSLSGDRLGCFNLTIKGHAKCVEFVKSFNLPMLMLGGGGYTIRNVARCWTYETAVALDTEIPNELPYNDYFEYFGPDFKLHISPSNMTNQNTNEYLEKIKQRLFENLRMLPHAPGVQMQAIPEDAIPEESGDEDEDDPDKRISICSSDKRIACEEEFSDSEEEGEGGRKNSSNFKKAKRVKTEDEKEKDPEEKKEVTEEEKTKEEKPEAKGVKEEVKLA

Histone deacetylase 3 [2] = target: T2, Histone deacetylase 3 (Homo sapiens, UniProt O15379); experiment: Competitive inhibition of HDAC3 (unknown origin) at 444 to 1500 nM by Lineweaver-Burk plot analysis; details: dose 444-1500 nM
T2 sequence (O15379 whole entry): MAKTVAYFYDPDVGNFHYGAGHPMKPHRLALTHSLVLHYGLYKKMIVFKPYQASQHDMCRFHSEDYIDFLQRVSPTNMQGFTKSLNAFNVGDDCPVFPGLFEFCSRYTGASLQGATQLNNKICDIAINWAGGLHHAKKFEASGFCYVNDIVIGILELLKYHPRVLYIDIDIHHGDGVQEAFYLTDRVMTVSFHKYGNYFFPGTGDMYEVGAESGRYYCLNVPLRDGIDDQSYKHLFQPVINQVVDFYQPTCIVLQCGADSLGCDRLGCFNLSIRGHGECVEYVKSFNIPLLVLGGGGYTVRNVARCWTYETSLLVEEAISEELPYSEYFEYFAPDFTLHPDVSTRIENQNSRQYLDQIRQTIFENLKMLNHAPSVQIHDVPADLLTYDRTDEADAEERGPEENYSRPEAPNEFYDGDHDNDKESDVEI

Histone deacetylase 11 = target: T3, Histone deacetylase 11 (Homo sapiens, UniProt Q96DB2); experiment: Inhibition of HDAC11 (unknown origin)
T3 sequence (Q96DB2 whole entry): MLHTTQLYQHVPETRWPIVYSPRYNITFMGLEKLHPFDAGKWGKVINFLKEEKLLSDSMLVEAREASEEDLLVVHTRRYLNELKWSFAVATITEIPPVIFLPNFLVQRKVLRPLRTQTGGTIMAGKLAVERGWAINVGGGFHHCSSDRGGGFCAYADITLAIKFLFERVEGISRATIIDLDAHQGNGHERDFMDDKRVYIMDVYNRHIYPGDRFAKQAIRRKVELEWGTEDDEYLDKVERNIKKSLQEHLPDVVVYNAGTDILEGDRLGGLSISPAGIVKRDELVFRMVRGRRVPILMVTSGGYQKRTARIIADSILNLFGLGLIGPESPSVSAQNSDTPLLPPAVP

Histone deacetylase 3 [3] = target: T2, Histone deacetylase 3; experiment: Inhibition of HDAC3 (unknown origin) preincubated for 5 mins
Histone deacetylase 1 [4] = target: T1, Histone deacetylase 1; experiment: Inhibition of HDAC1 (unknown origin) preincubated for 5 mins
Histone deacetylase 3 [5] = target: T2, Histone deacetylase 3; experiment: Inhibition of HDAC3 (unknown origin)
MV4-11 = experiment: Antiproliferative activity against human MV4-11 cells; assay type: functional, cell-based
Histone deacetylase 2 [6] = target: T4, Histone deacetylase 2 (Homo sapiens, UniProt Q92769); experiment: Inhibition of HDAC2 (unknown origin) preincubated for 90 mins
T4 sequence (Q92769 whole entry): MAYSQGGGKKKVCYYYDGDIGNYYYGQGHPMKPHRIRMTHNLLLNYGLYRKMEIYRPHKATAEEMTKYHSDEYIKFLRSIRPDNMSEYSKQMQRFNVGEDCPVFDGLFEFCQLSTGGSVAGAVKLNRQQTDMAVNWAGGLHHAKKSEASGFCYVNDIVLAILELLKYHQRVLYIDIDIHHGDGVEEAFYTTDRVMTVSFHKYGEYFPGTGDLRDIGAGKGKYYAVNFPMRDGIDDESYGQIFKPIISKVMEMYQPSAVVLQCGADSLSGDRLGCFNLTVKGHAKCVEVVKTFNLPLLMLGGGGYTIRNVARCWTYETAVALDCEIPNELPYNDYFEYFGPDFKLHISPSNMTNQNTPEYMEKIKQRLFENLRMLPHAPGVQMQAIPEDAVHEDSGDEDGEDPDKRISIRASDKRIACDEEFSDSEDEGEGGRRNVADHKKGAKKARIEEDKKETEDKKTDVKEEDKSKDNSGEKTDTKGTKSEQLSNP

Histone deacetylase 2 [7] = target: T4, Histone deacetylase 2; experiment: Inhibition of HDAC2 (unknown origin) preincubated for 60 mins
Histone deacetylase 4 = Histone deacetylase 4 (Homo sapiens, UniProt P56524); experiment: Inhibition of HDAC4 (unknown origin)
Chain of Histone deacetylase 4 (P56524 whole entry): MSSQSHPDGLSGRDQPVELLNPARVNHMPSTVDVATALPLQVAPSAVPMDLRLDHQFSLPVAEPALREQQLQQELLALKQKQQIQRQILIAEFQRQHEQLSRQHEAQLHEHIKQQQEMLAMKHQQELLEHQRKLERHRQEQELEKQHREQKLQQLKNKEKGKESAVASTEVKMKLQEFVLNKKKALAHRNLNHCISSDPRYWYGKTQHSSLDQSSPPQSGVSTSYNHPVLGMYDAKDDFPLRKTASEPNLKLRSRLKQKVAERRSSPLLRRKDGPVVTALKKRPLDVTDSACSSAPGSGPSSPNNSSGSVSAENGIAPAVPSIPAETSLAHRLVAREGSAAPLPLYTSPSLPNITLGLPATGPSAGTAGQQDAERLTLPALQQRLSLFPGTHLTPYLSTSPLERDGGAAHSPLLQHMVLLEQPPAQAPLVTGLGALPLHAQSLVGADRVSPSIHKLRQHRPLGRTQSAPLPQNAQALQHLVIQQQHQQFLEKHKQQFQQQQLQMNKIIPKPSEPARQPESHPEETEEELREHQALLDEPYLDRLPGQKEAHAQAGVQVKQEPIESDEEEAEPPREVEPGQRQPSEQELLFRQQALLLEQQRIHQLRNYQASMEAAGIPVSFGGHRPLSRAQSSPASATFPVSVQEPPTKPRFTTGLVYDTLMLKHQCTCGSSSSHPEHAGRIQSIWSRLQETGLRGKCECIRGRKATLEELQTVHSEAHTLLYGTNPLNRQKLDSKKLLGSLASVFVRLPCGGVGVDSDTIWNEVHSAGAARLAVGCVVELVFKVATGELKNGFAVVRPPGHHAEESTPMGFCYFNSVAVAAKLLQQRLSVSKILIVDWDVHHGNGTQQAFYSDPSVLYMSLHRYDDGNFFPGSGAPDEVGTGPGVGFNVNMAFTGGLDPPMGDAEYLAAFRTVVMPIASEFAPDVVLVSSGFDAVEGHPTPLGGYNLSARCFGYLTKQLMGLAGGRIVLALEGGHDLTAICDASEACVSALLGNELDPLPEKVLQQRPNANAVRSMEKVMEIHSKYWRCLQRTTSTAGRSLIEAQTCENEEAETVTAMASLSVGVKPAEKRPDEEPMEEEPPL

Histone deacetylase 9 = Histone deacetylase 9 (Homo sapiens, UniProt Q9UKV0); experiment: Inhibition of HDAC9 (unknown origin)
Chain of Histone deacetylase 9 (Q9UKV0 whole entry): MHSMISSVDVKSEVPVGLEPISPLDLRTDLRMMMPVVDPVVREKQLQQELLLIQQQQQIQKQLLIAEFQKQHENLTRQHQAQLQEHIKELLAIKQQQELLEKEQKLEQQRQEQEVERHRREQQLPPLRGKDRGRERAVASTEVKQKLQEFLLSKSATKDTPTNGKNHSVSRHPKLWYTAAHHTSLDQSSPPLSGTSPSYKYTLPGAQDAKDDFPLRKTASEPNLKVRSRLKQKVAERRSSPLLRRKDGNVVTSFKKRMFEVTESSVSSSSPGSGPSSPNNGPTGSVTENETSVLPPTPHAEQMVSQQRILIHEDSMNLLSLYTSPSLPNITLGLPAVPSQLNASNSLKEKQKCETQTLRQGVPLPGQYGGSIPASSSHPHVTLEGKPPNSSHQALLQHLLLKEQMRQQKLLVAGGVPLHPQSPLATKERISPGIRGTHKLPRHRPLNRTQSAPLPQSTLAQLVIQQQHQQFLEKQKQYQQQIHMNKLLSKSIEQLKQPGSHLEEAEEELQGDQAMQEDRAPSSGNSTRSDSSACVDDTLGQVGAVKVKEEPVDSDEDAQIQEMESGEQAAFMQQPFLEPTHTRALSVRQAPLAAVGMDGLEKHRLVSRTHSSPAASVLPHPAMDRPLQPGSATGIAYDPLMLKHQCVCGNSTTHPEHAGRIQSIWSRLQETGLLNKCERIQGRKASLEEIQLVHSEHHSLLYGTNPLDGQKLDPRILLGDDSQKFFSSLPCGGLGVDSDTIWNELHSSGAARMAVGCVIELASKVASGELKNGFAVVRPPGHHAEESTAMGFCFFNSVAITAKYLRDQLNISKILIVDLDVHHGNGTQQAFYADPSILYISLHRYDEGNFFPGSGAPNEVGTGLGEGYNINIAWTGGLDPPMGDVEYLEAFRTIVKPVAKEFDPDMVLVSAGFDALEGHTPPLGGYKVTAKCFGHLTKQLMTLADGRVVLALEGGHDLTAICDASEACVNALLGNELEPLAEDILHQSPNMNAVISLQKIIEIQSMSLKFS

Histone deacetylase 1 [8] = target: T1, Histone deacetylase 1; experiment: Competitive inhibition of HDAC1 (unknown origin) at 444 to 1500 nM by Lineweaver-Burk plot analysis; details: dose 444-1500 nM
Histone deacetylase 2 [9] = target: T4, Histone deacetylase 2; experiment: Inhibition of HDAC2 (unknown origin) preincubated for 5 mins
Histone deacetylase 2 [10] = target: T4, Histone deacetylase 2; experiment: Inhibition of HDAC2 (unknown origin) preincubated for 30 mins
Histone deacetylase 5 = Histone deacetylase 5 (Homo sapiens, UniProt Q9UQL6); experiment: Inhibition of HDAC5 (unknown origin)
Chain of Histone deacetylase 5 (Q9UQL6 whole entry): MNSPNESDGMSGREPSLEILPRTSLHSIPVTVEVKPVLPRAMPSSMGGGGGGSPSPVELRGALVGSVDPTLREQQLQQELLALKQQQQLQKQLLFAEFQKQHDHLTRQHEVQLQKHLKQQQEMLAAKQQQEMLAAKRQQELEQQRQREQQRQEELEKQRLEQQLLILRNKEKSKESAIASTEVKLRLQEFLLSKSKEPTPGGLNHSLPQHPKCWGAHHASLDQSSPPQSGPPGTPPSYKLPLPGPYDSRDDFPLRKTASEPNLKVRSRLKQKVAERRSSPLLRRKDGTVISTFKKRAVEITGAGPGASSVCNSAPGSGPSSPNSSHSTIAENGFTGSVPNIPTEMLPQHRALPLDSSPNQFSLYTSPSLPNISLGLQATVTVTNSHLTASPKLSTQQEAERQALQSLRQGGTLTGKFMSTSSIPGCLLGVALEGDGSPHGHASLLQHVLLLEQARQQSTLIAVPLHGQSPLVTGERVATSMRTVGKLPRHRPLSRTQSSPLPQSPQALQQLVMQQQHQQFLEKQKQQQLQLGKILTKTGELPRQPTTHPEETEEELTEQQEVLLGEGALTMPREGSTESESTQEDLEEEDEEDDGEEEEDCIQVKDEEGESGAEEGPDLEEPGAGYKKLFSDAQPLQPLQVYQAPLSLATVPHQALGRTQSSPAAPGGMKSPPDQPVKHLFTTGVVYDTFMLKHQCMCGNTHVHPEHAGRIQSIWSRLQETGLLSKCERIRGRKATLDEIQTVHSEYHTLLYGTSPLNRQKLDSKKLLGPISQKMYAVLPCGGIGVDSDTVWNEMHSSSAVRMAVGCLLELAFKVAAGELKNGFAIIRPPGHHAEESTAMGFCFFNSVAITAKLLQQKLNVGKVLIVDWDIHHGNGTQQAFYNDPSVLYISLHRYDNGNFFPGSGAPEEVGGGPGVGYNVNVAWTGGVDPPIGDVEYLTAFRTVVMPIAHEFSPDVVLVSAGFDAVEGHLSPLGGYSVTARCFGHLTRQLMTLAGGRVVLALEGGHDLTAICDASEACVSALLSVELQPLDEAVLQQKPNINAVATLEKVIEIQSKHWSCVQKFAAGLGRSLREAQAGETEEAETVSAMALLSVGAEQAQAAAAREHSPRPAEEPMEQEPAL

[11] = target: T5, Protein deacetylase HDAC6 (Homo sapiens, UniProt Q9UBN7); experiment: Inhibition of HDAC6 (unknown origin)
T5 sequence (Q9UBN7 whole entry): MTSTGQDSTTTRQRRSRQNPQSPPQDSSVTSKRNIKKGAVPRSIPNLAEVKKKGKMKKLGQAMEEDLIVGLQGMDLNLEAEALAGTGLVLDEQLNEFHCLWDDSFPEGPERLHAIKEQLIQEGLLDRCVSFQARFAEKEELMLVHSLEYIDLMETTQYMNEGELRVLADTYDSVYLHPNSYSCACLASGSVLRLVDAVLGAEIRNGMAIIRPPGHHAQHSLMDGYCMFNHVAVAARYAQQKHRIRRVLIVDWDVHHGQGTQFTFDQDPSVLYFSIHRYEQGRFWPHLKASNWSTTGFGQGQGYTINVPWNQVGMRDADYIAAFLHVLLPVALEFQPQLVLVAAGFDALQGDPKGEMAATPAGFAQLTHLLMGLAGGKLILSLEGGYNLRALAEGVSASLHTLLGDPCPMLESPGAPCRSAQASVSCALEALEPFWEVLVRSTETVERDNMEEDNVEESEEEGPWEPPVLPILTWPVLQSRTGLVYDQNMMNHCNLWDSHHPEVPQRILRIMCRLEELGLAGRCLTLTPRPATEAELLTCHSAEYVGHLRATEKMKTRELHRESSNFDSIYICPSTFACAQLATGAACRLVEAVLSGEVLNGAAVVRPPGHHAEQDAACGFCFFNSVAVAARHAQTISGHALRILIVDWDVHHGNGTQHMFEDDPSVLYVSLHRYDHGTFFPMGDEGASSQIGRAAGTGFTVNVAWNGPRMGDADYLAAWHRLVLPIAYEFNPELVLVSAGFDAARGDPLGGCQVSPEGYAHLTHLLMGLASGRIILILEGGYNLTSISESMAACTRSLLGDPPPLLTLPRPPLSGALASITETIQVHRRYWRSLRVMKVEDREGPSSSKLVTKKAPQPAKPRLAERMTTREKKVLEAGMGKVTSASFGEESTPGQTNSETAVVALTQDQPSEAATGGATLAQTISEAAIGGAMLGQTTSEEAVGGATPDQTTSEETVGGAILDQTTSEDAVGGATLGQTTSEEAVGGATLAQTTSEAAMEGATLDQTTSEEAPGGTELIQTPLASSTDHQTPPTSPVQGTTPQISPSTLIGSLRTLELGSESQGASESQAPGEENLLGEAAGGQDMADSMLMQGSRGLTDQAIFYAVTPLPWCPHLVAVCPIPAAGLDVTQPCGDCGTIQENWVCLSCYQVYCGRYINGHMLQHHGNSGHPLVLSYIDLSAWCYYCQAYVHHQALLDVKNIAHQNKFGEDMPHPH

Histone deacetylase 8 = target: T6, Histone deacetylase 8 (Homo sapiens, UniProt Q9BY41); experiment: Inhibition of HDAC8 (unknown origin)
T6 sequence (Q9BY41 whole entry): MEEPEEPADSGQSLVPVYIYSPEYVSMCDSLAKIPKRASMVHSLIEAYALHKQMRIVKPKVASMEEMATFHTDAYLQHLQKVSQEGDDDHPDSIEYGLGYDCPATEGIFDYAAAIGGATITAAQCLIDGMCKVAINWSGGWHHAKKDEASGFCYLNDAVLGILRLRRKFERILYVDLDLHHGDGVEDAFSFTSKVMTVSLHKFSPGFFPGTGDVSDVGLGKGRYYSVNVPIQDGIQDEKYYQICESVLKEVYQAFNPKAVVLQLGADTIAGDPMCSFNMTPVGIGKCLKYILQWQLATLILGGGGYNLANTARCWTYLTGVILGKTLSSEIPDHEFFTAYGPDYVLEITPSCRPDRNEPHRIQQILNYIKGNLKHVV

Histone deacetylase 7 = target: T7, Histone deacetylase 7 (Homo sapiens, UniProt Q8WUI4); experiment: Inhibition of HDAC7 (unknown origin)
T7 sequence (Q8WUI4 whole entry): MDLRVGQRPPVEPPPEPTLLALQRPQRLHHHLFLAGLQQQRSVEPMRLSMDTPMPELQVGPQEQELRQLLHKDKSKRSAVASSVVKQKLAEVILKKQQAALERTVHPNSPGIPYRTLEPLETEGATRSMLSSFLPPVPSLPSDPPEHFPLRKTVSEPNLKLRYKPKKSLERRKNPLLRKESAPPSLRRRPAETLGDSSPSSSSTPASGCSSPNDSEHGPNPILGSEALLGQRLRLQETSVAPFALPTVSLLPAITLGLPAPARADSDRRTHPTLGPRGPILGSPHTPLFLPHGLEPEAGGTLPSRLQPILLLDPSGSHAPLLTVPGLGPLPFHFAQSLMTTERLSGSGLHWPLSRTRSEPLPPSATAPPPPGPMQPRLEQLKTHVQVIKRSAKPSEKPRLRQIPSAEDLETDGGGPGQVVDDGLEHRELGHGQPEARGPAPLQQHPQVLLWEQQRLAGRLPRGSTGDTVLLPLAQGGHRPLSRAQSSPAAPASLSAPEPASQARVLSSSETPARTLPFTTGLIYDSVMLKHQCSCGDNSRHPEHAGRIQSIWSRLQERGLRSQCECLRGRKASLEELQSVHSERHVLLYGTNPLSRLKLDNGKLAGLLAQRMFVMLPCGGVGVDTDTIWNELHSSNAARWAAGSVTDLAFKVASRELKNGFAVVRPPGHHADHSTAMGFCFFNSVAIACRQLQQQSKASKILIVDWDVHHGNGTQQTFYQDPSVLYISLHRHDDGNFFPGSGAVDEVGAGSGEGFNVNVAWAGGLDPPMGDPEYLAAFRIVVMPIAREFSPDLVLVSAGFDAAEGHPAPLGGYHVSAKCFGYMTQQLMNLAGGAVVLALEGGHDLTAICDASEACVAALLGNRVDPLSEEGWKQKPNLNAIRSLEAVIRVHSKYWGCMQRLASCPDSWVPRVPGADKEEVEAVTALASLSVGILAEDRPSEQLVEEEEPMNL

Histone deacetylase 1 [12] = target: T1, Histone deacetylase 1; experiment: Inhibition of HDAC1 (unknown origin) preincubated for 60 mins
Histone deacetylase 3 [13] = target: T2, Histone deacetylase 3; experiment: Inhibition of HDAC3 (unknown origin) preincubated for 120 mins
Histone deacetylase 1 [14] = target: T1, Histone deacetylase 1; experiment: Inhibition of HDAC1 (unknown origin)
Histone deacetylase 2 [15] = target: T4, Histone deacetylase 2; experiment: Inhibition of HDAC2 (unknown origin)
Histone deacetylase 3 [16] = target: T2, Histone deacetylase 3; experiment: Inhibition of HDAC3 (unknown origin) preincubated for 60 mins
Histone deacetylase 3 [17] = target: T2, Histone deacetylase 3; experiment: Inhibition of HDAC3 (unknown origin) preincubated for 90 mins
Histone deacetylase 1 [18] = target: T1, Histone deacetylase 1; experiment: Inhibition of HDAC1 (unknown origin) preincubated for 90 mins
Histone deacetylase 3 [19] = target: T2, Histone deacetylase 3; experiment: Inhibition of HDAC3 (unknown origin) preincubated for 30 mins
Histone deacetylase 1 [20] = target: T1, Histone deacetylase 1; experiment: Inhibition of HDAC1 (unknown origin) preincubated for 30 mins
Histone deacetylase 2 [21] = target: T4, Histone deacetylase 2; experiment: Competitive inhibition of HDAC2 (unknown origin) at 444 to 1500 nM by Lineweaver-Burk plot analysis; details: dose 444-1500 nM
Histone deacetylase 2 [22] = target: T4, Histone deacetylase 2; experiment: Inhibition of HDAC2 (unknown origin) preincubated for 120 mins
[23] = target: T8, Polyamine deacetylase HDAC10 (Homo sapiens, UniProt Q969S8); experiment: Inhibition of HDAC10 (unknown origin)
T8 sequence (Q969S8 whole entry): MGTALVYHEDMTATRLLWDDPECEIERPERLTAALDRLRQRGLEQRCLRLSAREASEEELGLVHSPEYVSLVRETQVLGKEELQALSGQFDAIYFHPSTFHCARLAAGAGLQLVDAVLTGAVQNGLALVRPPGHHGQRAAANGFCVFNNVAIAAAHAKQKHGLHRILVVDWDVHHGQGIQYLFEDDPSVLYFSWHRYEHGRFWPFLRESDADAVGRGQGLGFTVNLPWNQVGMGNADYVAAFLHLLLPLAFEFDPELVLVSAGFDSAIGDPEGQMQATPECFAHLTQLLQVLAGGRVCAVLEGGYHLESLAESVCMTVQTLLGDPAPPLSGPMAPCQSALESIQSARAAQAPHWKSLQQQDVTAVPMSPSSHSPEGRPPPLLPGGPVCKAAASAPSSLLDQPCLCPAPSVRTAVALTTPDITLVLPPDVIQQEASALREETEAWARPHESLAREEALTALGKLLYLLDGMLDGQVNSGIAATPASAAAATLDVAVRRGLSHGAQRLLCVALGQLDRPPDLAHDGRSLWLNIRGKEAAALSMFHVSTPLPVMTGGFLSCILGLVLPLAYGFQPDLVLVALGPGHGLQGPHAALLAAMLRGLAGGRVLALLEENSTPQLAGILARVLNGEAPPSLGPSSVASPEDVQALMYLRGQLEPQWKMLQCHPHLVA

Nc1ccccc1NC(=O)CCCCCCC(=O)Nc1ccccc1
IC50 (Histone deacetylase 1 [1]): 1070 nM | inhibition (Histone deacetylase 3 [2]): Active | IC50 (Histone deacetylase 11): > 10000 nM | IC50 (Histone deacetylase 3 [3]): 659 nM | IC50 (Histone deacetylase 1 [4]): 944 nM | IC50 (Histone deacetylase 3 [5]): 379 nM | IC50 (MV4-11): 7240 nM | IC50 (Histone deacetylase 2 [6]): 1360 nM | IC50 (Histone deacetylase 2 [7]): 1170 nM | IC50 (Histone deacetylase 4): > 10000 nM | IC50 (Histone deacetylase 9): > 10000 nM | inhibition (Histone deacetylase 1 [8]): Active | IC50 (Histone deacetylase 2 [9]): 1160 nM | IC50 (Histone deacetylase 2 [10]): 1170 nM | IC50 (Histone deacetylase 5): > 10000 nM | IC50 [11]: > 10000 nM | IC50 (Histone deacetylase 8): > 10000 nM | IC50 (Histone deacetylase 7): > 10000 nM | IC50 (Histone deacetylase 1 [12]): 1140 nM | IC50 (Histone deacetylase 3 [13]): 463 nM | IC50 (Histone deacetylase 1 [14]): 828 nM | IC50 (Histone deacetylase 2 [15]): 530 nM | IC50 (Histone deacetylase 3 [16]): 535 nM | IC50 (Histone deacetylase 3 [17]): 391 nM | IC50 (Histone deacetylase 1 [18]): 1220 nM | IC50 (Histone deacetylase 3 [19]): 559 nM | IC50 (Histone deacetylase 1 [20]): 910 nM | inhibition (Histone deacetylase 2 [21]): Active | IC50 (Histone deacetylase 2 [22]): 1270 nM | IC50 [23]: > 10000 nM
